Measured values from paper PMC4685012 (Bioorganic & medicinal chemistry, 2015).

How the values were obtained:
[1] = tested on: HDAC1/2; settings: read-out: HDAC1/2 IC50; cited from earlier work
[2] = biological target: T1, HDAC6 (Homo sapiens, UniProt Q9UBN7); assay: HDAC6 inhibition, label-free mass spectrometry-based SAMDI assay; type: biochemical; settings: vs 26e as printed
T1 sequence (Q9UBN7 1-1215): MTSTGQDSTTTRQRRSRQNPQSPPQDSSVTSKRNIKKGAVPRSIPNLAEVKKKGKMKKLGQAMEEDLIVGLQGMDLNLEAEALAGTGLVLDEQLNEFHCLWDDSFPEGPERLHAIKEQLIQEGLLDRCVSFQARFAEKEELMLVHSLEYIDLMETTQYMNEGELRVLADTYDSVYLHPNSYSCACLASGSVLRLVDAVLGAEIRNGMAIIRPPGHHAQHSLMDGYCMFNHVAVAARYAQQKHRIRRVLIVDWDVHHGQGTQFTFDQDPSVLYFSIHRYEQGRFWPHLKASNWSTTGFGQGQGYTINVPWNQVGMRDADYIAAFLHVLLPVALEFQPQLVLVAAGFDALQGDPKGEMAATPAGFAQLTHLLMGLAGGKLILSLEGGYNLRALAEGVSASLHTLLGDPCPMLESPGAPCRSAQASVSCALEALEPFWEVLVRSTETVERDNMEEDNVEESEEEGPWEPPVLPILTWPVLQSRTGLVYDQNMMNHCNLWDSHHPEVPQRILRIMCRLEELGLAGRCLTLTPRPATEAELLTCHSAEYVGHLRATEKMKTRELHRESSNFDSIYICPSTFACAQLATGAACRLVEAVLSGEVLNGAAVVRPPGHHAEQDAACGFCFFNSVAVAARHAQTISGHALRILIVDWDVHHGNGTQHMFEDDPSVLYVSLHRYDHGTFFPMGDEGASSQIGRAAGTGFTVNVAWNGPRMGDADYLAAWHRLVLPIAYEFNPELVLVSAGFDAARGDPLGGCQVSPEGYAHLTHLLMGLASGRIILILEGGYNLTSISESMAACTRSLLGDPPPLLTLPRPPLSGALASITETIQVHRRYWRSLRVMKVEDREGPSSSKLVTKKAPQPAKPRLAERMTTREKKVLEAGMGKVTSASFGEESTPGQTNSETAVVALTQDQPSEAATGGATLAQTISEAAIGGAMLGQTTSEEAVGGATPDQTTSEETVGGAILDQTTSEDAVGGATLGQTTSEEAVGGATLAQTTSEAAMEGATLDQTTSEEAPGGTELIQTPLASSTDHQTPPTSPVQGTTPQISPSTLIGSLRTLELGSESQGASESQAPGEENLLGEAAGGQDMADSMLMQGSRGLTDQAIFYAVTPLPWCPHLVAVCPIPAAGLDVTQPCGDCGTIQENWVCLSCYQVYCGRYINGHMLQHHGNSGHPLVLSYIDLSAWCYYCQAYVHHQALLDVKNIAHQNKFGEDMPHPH

[3] = tested on: MCF-7 cells; assay: Cell viability; type: cell-based; settings: MCF-7 cells
[4] = biological target: T2, HDAC8 (Homo sapiens, UniProt Q9BY41); assay: HDAC8 inhibition, label-free mass spectrometry-based SAMDI assay; type: biochemical; settings: vs 26e as printed
T2 sequence (Q9BY41 1-377): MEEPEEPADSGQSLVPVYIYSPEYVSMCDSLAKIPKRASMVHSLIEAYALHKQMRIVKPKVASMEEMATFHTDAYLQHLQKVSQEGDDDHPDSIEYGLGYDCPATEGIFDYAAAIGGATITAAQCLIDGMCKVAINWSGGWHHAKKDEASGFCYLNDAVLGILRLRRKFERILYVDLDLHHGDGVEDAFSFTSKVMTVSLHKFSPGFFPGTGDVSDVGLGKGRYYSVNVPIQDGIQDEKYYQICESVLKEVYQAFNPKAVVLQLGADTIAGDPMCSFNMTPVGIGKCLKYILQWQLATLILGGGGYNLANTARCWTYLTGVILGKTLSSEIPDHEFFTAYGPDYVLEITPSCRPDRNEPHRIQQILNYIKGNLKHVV

[5] = tested on: Vero cells; assay: Cell viability; type: cell-based, monkey; settings: Primates, 72 h, read-out: Anti-proliferative activity IC50, Vero

In the case of `CC[C@H]1OC(=O)[C@@H](C)[C@H](O[C@H]2C[C@@](C)(OC)[C@@H](O)[C@H](C)O2)[C@H](C)[C@H](O[C@H]2O[C@@H](C)C[C@@H](N(C)Cc3ccc(-c4cn(CCCCCCC(=O)NO)nn4)cc3)[C@@H]2O)[C@@](C)(O)C[C@H](C)CN(C)[C@@H](C)[C@H](O)[C@@]1(C)O` [Compound 17f], the IC50 [1] is listed as 13.9 nM.

In the case of `CC[C@H]1OC(=O)[C@H](C)C(=O)[C@H](C)[C@@H](O[C@@H]2O[C@H](C)C[C@H](N(C)Cc3cccc(-c4cn(CCCCCCC(=O)NO)nn4)c3)[C@H]2O)[C@@](C)(OC)C[C@@H](C)C2=NCCN3C(=O)O[C@@]1(C)[C@H]3[C@H]2C` [Compound 25b, (Tricyclic Ketolide-3′-(N-(3-triazolylbenzyl)))-N-hydroxyheptanamide], the “Fold more potent against HDAC6 than 26e” value [2] is reported as “approximately 2 fold”, the “Antiproliferative activity against MCF-7, in words” value [3] is reported as “potently inhibited” and the “Fold more potent against HDAC8 than 26e” value [4] is reported as about 5 fold.

Compound `O=C(CCCCCCC(=O)Nc1ccccc1)NO` [SAHA, suberoylanilide hydroxamic acid, reference compound] has an IC50 [5] of 1030 ± 90 nM.
